Results as given in US20090221559A1 (priority 2005, published 2009).
Where two headings read alike, the source gives them in different places.

Columns and labels:
[1] = target: T1, HCV NS5B polymerase (His-tagged, C-terminal 21 amino acid deleted NS5B, HC-J4) (Hepatitis C virus genotype 1b, UniProt O92972); assay: NS5b polymerase assay (biochemical RdRp assay, 3H-GTP incorporation, SPA beads); parameters: species or system HCV genotype 1b
T1 construct: The cDNA encoding NS5B amino acid 1-570 (HC-J4, genotype 1b); His tag (His6, from pET-21b) (C); made in house; host or cells: E. coli BL21 (DE3)
T1 sequence (O92972 2417-3000, looked up, stated change not applied): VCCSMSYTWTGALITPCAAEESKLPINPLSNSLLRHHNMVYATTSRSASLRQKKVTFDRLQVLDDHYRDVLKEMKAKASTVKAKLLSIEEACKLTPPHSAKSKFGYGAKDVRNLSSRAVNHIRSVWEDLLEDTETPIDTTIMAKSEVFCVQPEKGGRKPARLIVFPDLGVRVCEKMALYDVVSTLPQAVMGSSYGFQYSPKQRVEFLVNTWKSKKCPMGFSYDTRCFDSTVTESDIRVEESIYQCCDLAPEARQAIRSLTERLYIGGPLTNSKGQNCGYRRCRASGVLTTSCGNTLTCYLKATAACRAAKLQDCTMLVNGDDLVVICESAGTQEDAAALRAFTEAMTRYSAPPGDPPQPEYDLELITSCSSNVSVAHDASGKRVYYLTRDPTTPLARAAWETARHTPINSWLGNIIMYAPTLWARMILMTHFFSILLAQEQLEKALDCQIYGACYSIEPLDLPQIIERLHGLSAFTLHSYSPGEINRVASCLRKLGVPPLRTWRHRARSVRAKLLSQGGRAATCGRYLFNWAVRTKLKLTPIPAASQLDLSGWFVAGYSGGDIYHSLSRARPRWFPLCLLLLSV
Method in brief: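 3H-GTP incorporation into newly made RNA was captured on SPA beads added in EDTA after 2 h at 25 °C. Compounds in DMSO met preformed enzyme–template complex (200 nM truncated His-NS5B, HC-J4 1b; biotin-oligo(rG13)/poly(rC)) for 15 min at RT, then 600 nM GTP, 5 mM MgCl2, Tris pH 7.5 started polymerization.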

[2] = tested on: HCV replicon RNA replication in Huh-7 luc/neo (Huh-Luc) cells; assay: HCV replicon assay (stable replicon cell reporter assay, luciferase read-out); assay type: cell-based, HCV type 1b
Method in brief: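 Three-day compound exposure used Huh-Luc cells, which harbour an autonomously replicating genotype 1b NS3-NS5B replicon expressing luciferase and neo^R. Luciferase signal served as the replication read-out, and dose-response curves came from several concentrations per compound.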

[3] = NS5B Polymerase Assay IC50, 200 nM enzyme, 3H-GTP incorporation, 2 h at 25° C.
[4] = Hepatitis C virus, Huh-7, 72 h, read-out: Replicon Assay EC50, Huh-Luc cells, three days incubation, luciferase activity
[5] = NS5B Polymerase Assay IC50 (μM)
[6] = Hepatitis C virus, Huh-7, 72 h, read-out: Replicon Assay EC50 (μM), Huh-Luc cells, incubation of three days, luciferase activity
[7] = 200 nM enzyme, 3H-GTP incorporation, 2 h at 25° C., read-out: NS5B Polymerase Assay IC50
[8] = Huh-Luc cells, three days incubation, luciferase activity, read-out: Replicon Assay EC50

| Structure (SMILES) | IC50 [1, 3] | EC50 [2, 4] | IC50 [1, 5] | EC50 [2, 6] | other results |
| --- | --- | --- | --- | --- | --- |
| CC1(C)CC(=O)C2=C(C1)Nc1ccccc1N(C(=O)C(F)(F)F)C2c1ccc2c(c1)OCO2 (stereo not drawn) [compound 266] | > 42.7 µM | 24 µM | – | – | – |
| CCCOc1ccccc1C1C2=C(CC(C)(C)CC2=O)Nc2ccccc2N1C(C)=O (stereo not drawn) [compound 130] | > 42.7 µM | > 32 µM | – | – | – |
| CSc1ccc(C2Nc3ccccc3NC3=C2C(=O)CC(c2ccc(Cl)cc2)C3)cc1 (stereo not drawn) [compound 382] | – | – | > 42.7 µM | 16.7 µM | – |
| CCC(=O)N1c2ccccc2NC2=C(C(=O)CC(c3ccc(OC)cc3)C2)C1c1ccc(Cl)cc1 (stereo not drawn) [compound 227] | – | – | – | – | IC50 [1, 7]: > 33.3 µM; EC50 [2, 8]: 17 µM |
| COc1cccc(C2Nc3ccccc3NC3=C2C(=O)CC(c2ccc(Cl)cc2)C3)c1 (stereo not drawn) [compound 360] | – | – | > 42.7 µM | 11.2 µM | – |
| COc1ccc([C@@H]2CC(=O)C3=C(C2)Nc2ccccc2N[C@H]3c2ccc3c(c2)OCO3)cc1OC [compound 494] | – | – | > 42.7 µM | 21.7 µM | – |
| CC(=O)N1c2ccccc2NC2=C(C(=O)CC(C)(C)C2)C1c1ccc(F)cc1 (stereo not drawn) [compound 4] | > 42.7 µM | > 32 µM | – | – | – |
| CC(C)C(=O)N1c2ccccc2NC2=C(C(=O)CC(C)(C)C2)C1c1cccnc1 (stereo not drawn) [compound 259] | 29.5 µM | > 33 µM | – | – | – |
| COc1ccc(C2CC(=O)C3=C(C2)Nc2ccccc2NC3c2ccc(Cl)c([N+](=O)[O-])c2)cc1 (stereo not drawn) [compound 389] | – | – | > 42.7 µM | 5.58 µM | – |
| CC1(C)CC(=O)C2=C(C1)Nc1ccccc1N(C(=O)Cc1ccccc1)C2c1c(F)cccc1Cl (stereo not drawn) [compound 69] | > 42.7 µM | 4.58 µM | – | – | – |
| CC(=O)N1c2ccccc2NC2=C(C(=O)CC(C)(C)C2)C1c1ccc(F)cc1F (stereo not drawn) [compound 146, 10-acetyl-11-(2,4-difluorophenyl)-3,3-dimethyl-2,3,4,5,10,11-hexahydro-1H-dibenzo[b,e][1,4]diazepin-1-one] | 2.02 µM | 23.9 µM | – | – | – |
| CC(=O)N1c2ccccc2NC2=C(C(=O)CC(c3ccccc3OCc3ccccc3)C2)C1C(Br)=Cc1ccccc1 (mixture of isomers) [compound 299] | > 133 µM | 2.36 µM | – | – | – |
| CC(=O)N1c2ccccc2NC2=C(C(=O)CC(c3ccccc3OCc3ccccc3)C2)C1c1cccc(OCc2ccccc2)c1 (single isomer, unassigned) [compound 190] | – | – | – | – | IC50 ([1]; read-out: NS5B Polymerase Assay IC50, 200 nM enzyme, 3H-GTP incorporation, 2 h at 25° C.): > 42.7 µM; EC50 ([2]; read-out: Replicon Assay EC50, Huh-Luc cells, three days incubation, luciferase activity): 1.09 µM |
| CCCCCC(=O)N1c2ccccc2NC2=C(C(=O)CC(c3ccccc3OCCC)C2)C1c1ccc(OC)cc1 (stereo not drawn) [compound 222] | – | – | – | – | IC50 [1, 7]: > 42.7 µM; EC50 [2, 8]: 7.73 µM |
| COc1ccc(OC)c(C2C3=C(CC(C)(C)CC3=O)Nc3ccccc3N2C(=O)C(F)(F)F)c1 (stereo not drawn) [compound 3] | > 42.7 µM | > 32 µM | – | – | – |
| CC(=O)N1c2ccccc2NC2=C(C(=O)CC(C)(C)C2)[C@@H]1c1ccc(OCc2ccccc2)cc1Cl (single isomer, unassigned) [compound 306] | 83.1 µM | 3.92 µM | – | – | – |
| CC(=O)N1c2ccccc2NC2=C(C(=O)CC(C)(C)C2)C1c1cccc(Cl)c1 (stereo not drawn) [compound 126] | > 42.7 µM | > 32 µM | – | – | – |
| CCOc1cc(C2Nc3ccccc3NC3=C2C(=O)CC(c2ccc(OC)cc2)C3)ccc1OC(C)=O (stereo not drawn) [compound 386] | – | – | > 42.7 µM | > 29.6 µM | – |
| CCCCOc1ccc(C2C3=C(CC(C)(C)CC3=O)Nc3ccccc3N2C(=O)C(C)C)cc1 (stereo not drawn) [compound 14] | > 33.3 µM | 10.6 µM | – | – | – |
| COc1ccc(OC)c(C2C3=C(CC(C)(C)CC3=O)Nc3ccccc3N2C(C)=O)c1 (stereo not drawn) [compound 118] | > 42.7 µM | > 32 µM | – | – | – |
| CC1CC(=O)C2=C(C1)Nc1ccccc1NC2c1ccc(Cl)cc1Cl (stereo not drawn) [compound 422, 11-(2,4-dichlorophenyl)-3-methyl-2,3,4,5,10,11-hexahydro-1H-dibenzo[b,e][1,4]diazepin-1-one] | – | – | > 133 µM | > 100 µM | – |
| O=C1CC(c2ccc(Cl)cc2)CC2=C1C(c1cccc(Cl)c1)N(C(=O)C(F)(F)F)c1ccccc1N2 (mixture of isomers) [compound 208] | – | – | – | – | IC50 [1, 7]: > 33.3 µM; EC50 [2, 8]: 11.1 µM |
| Cc1cccc(C2Nc3ccccc3NC3=C2C(=O)CC(c2ccccc2)C3)c1 (stereo not drawn) [compound 354] | – | – | > 42.7 µM | 20.5 µM | – |
| CC1(C)CC(=O)C2=C(C1)Nc1ccccc1N(C(=O)Cc1ccccc1)C2c1c(Cl)cccc1Cl (stereo not drawn) [compound 16] | > 42.7 µM | 10.6 µM | – | – | – |

| Structure (SMILES) | IC50 [1, 3] | EC50 [2, 4] | IC50 [1, 5] | EC50 [2, 6] | other results |
| --- | --- | --- | --- | --- | --- |
| CC1(C)CC(=O)C2=C(C1)Nc1ccccc1NC2c1ccc(OCc2ccccc2)cc1 (stereo not drawn) [compound 426] | – | – | 30.8 µM | 7.31 µM | – |
| CC(C)C(=O)N1c2ccccc2NC2=C(C(=O)CC(C)(C)C2)C1c1ccc(Cl)cc1Cl (stereo not drawn) [compound 28] | > 42.7 µM | 5.52 µM | – | – | – |
| CCCCCC(=O)N1c2ccccc2NC2=C(C(=O)CC(c3ccc(Cl)cc3)C2)C1c1ccc(OC)cc1 (mixture of isomers) [compound 215] | – | – | – | – | IC50 [1, 7]: > 33.3 µM; EC50 [2, 8]: 14.1 µM |
| CC(=O)N1c2ccccc2NC2=C(C(=O)CC(C)(C)C2)C1c1ccc(-c2cccc([N+](=O)[O-])c2)o1 (stereo not drawn) [compound 250] | > 42.6 µM | 7.95 µM | – | – | – |
| CC1(C)CC(=O)C2=C(C1)Nc1ccccc1N(C(=O)c1ccccc1)C2c1c(F)cccc1Cl (stereo not drawn) [compound 37] | > 42.7 µM | 6.93 µM | – | – | – |
| O=C1CC(c2ccc(Cl)cc2)CC2=C1C(c1cccc([N+](=O)[O-])c1)N(C(=O)C(F)(F)F)c1ccccc1N2 (mixture of isomers) [compound 202] | – | – | – | – | IC50 [1, 7]: > 33.3 µM; EC50 [2, 8]: 9.68 µM |
| CC1(C)CC(=O)C2=C(C1)Nc1ccccc1NC2c1c(Cl)cc(OCc2ccccc2)cc1Cl (stereo not drawn) [compound 447, 11-(4-benzyloxy-2,6-dichlorophenyl)-3,3-dimethyl-2,3,4,5,10,11-hexahydro-1H-dibenzo[b,e][1,4]diazepin-1-one] | – | – | > 133 µM | 2.52 µM | – |
| COc1ccc(C2CC(=O)C3=C(C2)Nc2ccccc2N(C(=O)C(F)(F)F)C3c2ccc(Cl)cc2)cc1 (mixture of isomers) [compound 210] | – | – | – | – | IC50 [1, 7]: > 33.3 µM; EC50 [2, 8]: 12.1 µM |
| O=C1CC(c2ccco2)CC2=C1C(c1ccc(Cl)cc1)Nc1ccccc1N2 (stereo not drawn) [compound 413] | – | – | > 33.3 µM | 12 µM | – |
| CCCCOc1ccc(C2CC(=O)C3=C(C2)Nc2ccccc2N(C(=O)CC)C3c2ccccc2)cc1 (mixture of isomers) [compound 217] | – | – | – | – | IC50 [1, 7]: > 42.7 µM; EC50 [2, 8]: 20.3 µM |
| O=C1CC(c2ccc(Cl)cc2)CC2=C1C(c1ccccc1C(F)(F)F)Nc1ccccc1N2 (stereo not drawn) [compound 349] | – | – | > 42.7 µM | 2.86 µM | – |
| CCCCC(=O)N1c2ccccc2NC2=C(C(=O)CC(C)(C)C2)C1c1ccc(-c2cccc([N+](=O)[O-])c2)o1 (stereo not drawn) [compound 255] | > 42.7 µM | 21.8 µM | – | – | – |
| COc1ccc(C2C3=C(CC(C)(C)CC3=O)Nc3ccccc3N2C(C)=O)cc1COc1ccc(F)cc1 (stereo not drawn) [compound 59] | > 42.7 µM | 5.74 µM | – | – | – |
| CC(=O)N1c2ccccc2NC2=C(C(=O)CC(C)(C)C2)C1c1ccc(Oc2ccccc2)cc1 (stereo not drawn) [compound 134, 10-acetyl-11-(4-phenoxyphenyl)-3,3-dimethyl-2,3,4,5,10,11-hexahydro-1H-dibenzo[b,e][1,4]diazepin-1-one] | 47.3 µM | 4.64 µM | – | – | – |
| COC(=O)CN1c2ccccc2NC2=C(C(=O)CC(C)(C)C2)C1c1ccc(Cl)cc1Cl (stereo not drawn) [compound 510] | – | – | > 133 µM | 4.56 µM | – |
| Cc1ccc(C2CC(=O)C3=C(C2)Nc2ccccc2NC3c2ccccc2F)cc1 (stereo not drawn) [compound 412] | – | – | > 33.3 µM | 16.7 µM | – |
| CC(=O)N1c2ccccc2NC2=C(C(=O)CC(C)(C)C2)C1c1ccc(Br)s1 (stereo not drawn) [compound 282] | > 42.7 µM | 17 µM | – | – | – |
| O=C1C[C@@H](c2ccccc2OCc2ccccc2)CC2=C1C(c1cccc(OC(=O)c3ccc(Cl)cc3)c1)Nc1ccccc1N2 (single isomer, unassigned) [compound 512, 11-[3-(4-Chlorobenzoyloxy)phenyl]-3-(2-benzyloxyphenyl)-2,3,4,5,10,11-hexahydro-dibenzo[b,e][1,4]diazepin-1-one] | – | – | 84.5 µM | 8.42 µM | – |
| O=C1C[C@@H](c2ccc3c(c2)OCO3)CC2=C1[C@H](c1ccc3c(c1)OCO3)Nc1ccccc1N2 [compound 492] | – | – | > 42.7 µM | 11 µM | – |
| CCOc1cccc(C2Nc3ccccc3NC3=C2C(=O)CC(c2ccc(Cl)cc2)C3)c1 (stereo not drawn) [compound 379] | – | – | > 42.7 µM | 6.79 µM | – |
| Cc1ccc(C2CC(=O)C3=C(C2)Nc2ccccc2N(C(=O)C(F)(F)F)C3c2ccccc2Cl)cc1 (stereo not drawn) [compound 169] | – | – | – | – | IC50 [1, 7]: > 33.3 µM; EC50 [2, 8]: 17.7 µM |
| COc1ccccc1C1C2=C(CC(C)(C)CC2=O)Nc2ccccc2N1C(C)=O (stereo not drawn) [compound 128] | > 42.7 µM | > 32 µM | – | – | – |
| O=C1C[C@@H](c2ccc(Cl)cc2)CC2=C1[C@H](c1c[nH]c3ccccc13)Nc1ccccc1N2 [compound 482] | – | – | > 42.7 µM | 27 µM | – |
| O=C1CC(c2ccc(Cl)cc2)CC2=C1C(c1cccc(F)c1)Nc1ccccc1N2 (stereo not drawn) [compound 380] | – | – | > 42.7 µM | 8.63 µM | – |
